This is an account of results in publication PMC11193019, “Transient kinetics reveal the mechanism of competitive inhibition of the neutral amino acid transporter ASCT2” (The Journal of Biological Chemistry, 2024).

Substitutions are numbered along the chain they refer to.

Type in all cases: cell-based
The target of assay [1] is T1, ASCT2 (rASCT2) (Rattus norvegicus, UniProt D3ZJ25, D489N).
T1 construct: gene Slc1a5; rASCT2 mutant expressed in HEK293T cells
T1 sequence (D3ZJ25 1-555 D489N): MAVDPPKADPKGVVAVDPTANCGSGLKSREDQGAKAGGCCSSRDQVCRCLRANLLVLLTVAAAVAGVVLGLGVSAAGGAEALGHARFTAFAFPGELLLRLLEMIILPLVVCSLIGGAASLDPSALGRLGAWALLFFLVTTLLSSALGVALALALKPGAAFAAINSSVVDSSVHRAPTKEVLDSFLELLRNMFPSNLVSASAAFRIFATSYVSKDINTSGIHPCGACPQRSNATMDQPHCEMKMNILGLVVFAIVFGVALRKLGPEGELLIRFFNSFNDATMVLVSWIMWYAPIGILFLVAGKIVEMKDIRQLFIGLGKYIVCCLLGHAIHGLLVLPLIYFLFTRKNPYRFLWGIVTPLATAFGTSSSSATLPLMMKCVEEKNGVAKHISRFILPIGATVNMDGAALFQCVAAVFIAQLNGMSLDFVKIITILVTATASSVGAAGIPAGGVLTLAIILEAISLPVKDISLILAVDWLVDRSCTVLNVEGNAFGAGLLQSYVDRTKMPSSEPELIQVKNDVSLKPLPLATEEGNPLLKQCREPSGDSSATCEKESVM
Kind of assay: whole-cell patch clamp, anion current dose response at […] Na+.

For assay [2], the target named is T2, ASCT2 (rASCT2) (Rattus norvegicus, UniProt D3ZJ25).
T2 construct: gene Slc1a5; rASCT2 cDNA in pBK-CMV, expressed in HEK293T cells
T2 sequence (D3ZJ25 1-555): T1 sequence (D3ZJ25 1-555 D489N) with N489D
Kind of assay: whole-cell patch clamp (leak anion current block dose response; rapid solution exchange and displacement by serine).

Assay [3] deals with T3, ASCT2 (rASCT2) (Rattus norvegicus, UniProt D3ZJ25, D402N).
T3 construct: gene Slc1a5; rASCT2 mutant expressed in HEK293T cells
T3 sequence (D3ZJ25 1-555 D402N): T1 sequence (D3ZJ25 1-555 D489N) with D402N, N489D
As to the kind of experiment: whole-cell patch clamp, anion current dose response at […] Na+.

For `O=C(O[C@@H]1CN[C@H](C(=O)O)C1)c1ccc(-c2ccccc2)cc1` [Lc-BPE, L-cis hydroxyproline biphenyl ester], the IC50 came to 4400 ± 800 nM on ASCT2 (rASCT2) [1], 830 ± 200 nM on ASCT2 (rASCT2) [2] and 1600 ± 100 nM on ASCT2 (rASCT2) [3].
